{
  "source": "paper PMC12257542",
  "about": "“A Radiolabeled Photoswitchable G Protein-Coupled Receptor Antagonist Enlightens Ligand Binding Kinetics Associated with Photoswitching” (Journal of the American Chemical Society, 2025)",
  "key": {"[1]": {"test": "UV-vis spectra of trans and PSS cis states in HBSS buffer", "format": "physicochemical", "conditions": "25 μM in HBSS buffer containing 1% DMSO", "protocol": "(§1) Experimental procedures – Photochemistry\nUV−Vis spectra were recorded using a Thermo-scientific Evolution 201 PC spectrophotometer equipped with a thermostated cell holder set at 20 °C. Fits of UV−vis spectroscopy data were generated using Prism 10.1.0. Illumination for almost all photochemical experiments was executed using a Sutter instruments Lambda LS with a 300 W full-spectrum lamp connected to a Sutter instruments Lambda 10-3 optical filter changer equipped with 360 ± 10 nm, 434 ± 9 nm 494 ± 9 nm, or a Lambda 721 optical beam combiner system equipped with 365 ± 11 nm and 506 ± 14 nm filter. The light intensity used for the lambda 10-3 optical filter is 0.93 mW/mm2 using the 360 ± 20 nm filter, 0.79 mW/mm2 for the 434 ± 9 nm filter, 0.77 mW/mm2 for the 494 ± 9 nm filter as measured using a Thorlabs PM16−401 power meter. The light intensity used for the lambda 721 optical beam combiner is 200 mW using the 365 ± 11 nm filter and 60 mW for the 506 ± 12 nm filter. For photochemical analyses, illuminations were performed in Hellma Suprasil quartz 114QS cuvettes. For the dynamic illuminations, a 4-way cuvette holder (Avantes) was used. The left outlet of the holder is connected to an Avantes AvaLight-DH-S-BAL Deuterium lamp. The right outlet is connected through a fiber to an AvaSpec UV/Vis spectrometer. The lower outlet is connected to a Lambda 721 optical beam combiner system equipped with 365 ± 11 nm and 506 ± 14 nm filter illumination means. The upper outlet is covered with a black cap. The temperature of the solution in the cuvette (20 °C) is controlled by Q-blue Wireless Temperature Control software. […]\nThe typical distance […]\nbetween light source and vial or cuvette was 2 cm."}, "[2]": {"test": "Thermal relaxation of PSS cis states (Arrhenius extrapolation)", "format": "physicochemical", "conditions": "approximate; HBSS buffer + 1% DMSO, extrapolated to 20 °C", "protocol": "as §1\nUV−Vis spectra were recorded using a Thermo-scientific Evolution 201 PC spectrophotometer equipped with a thermostated cell holder set at 20 °C. Fits of UV−vis spectroscopy data were generated using Prism 10.1.0. Illumination for almost all photochemical experiments was executed using a Sutter instruments Lambda LS with a 300 W full-spectrum lamp connected to a Sutter instruments Lambda 10-3 optical filter changer equipped with 360 ± 10 nm, 434 ± 9 nm 494 ± 9 nm, or a Lambda 721 optical beam combiner system equipped with 365 ± 11 nm and 506 ± 14 nm filter. The light intensity used for the lambda 10-3 optical filter is 0.93 mW/mm2 using the 360 ± 20 nm filter, 0.79 mW/mm2 for the 434 ± 9 nm filter, 0.77 mW/mm2 for the 494 ± 9 nm filter as measured using a Thorlabs PM16−401 power meter. The light intensity used for the lambda 721 optical beam combiner is 200 mW using the 365 ± 11 nm filter and 60 mW for the 506 ± 12 nm filter. For photochemical analyses, illuminations were performed in Hellma Suprasil quartz 114QS cuvettes. For the dynamic illuminations, a 4-way cuvette holder (Avantes) was used. The left outlet of the holder is connected to an Avantes AvaLight-DH-S-BAL Deuterium lamp. The right outlet is connected through a fiber to an AvaSpec UV/Vis spectrometer. The lower outlet is connected to a Lambda 721 optical beam combiner system equipped with 365 ± 11 nm and 506 ± 14 nm filter illumination means. The upper outlet is covered with a black cap. The temperature of the solution in the cuvette (20 °C) is controlled by Q-blue Wireless Temperature Control software.\nThermal relaxation experiments and Arrhenius extrapolations were performed according to Priimagi et al20, using a compound concentration of 25 μM in HBSS +1% DMSO and temperatures of 50, 60, and 70 °C. Illuminations for pharmacological experiments were performed in cylindrical clear glass vials with a volume of 4.5 mL. The typical distance between light source and vial or cuvette was 2 cm."}, "mouse H3R": {"target": "T1, mouse H3R (Mus musculus, UniProt P58406)", "T1 construct": "expressed in transfected cells; host or cells: HEK293T, transient transfection (pcDEF3), cell homogenates", "T1 sequence (P58406 whole entry)": "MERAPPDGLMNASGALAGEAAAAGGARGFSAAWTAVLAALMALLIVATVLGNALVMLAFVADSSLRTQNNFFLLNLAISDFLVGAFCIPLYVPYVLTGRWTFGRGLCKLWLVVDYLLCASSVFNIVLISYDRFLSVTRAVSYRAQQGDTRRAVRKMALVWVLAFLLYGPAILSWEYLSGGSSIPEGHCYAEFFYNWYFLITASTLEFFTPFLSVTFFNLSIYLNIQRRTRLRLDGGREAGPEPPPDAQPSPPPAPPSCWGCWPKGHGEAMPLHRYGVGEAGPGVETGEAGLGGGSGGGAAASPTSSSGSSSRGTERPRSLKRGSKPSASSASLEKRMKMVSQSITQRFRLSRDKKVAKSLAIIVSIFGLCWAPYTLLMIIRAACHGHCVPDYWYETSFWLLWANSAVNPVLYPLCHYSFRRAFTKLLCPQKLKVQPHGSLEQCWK", "test": "[3H]NAMH competition radioligand binding on mH3R-expressing cell homogenates", "protocol": "Figure S15. Histamine receptor selectivity binding experiments. Concentration binding curves of trans-3f on cell homogenates expressing H1R (in competition with 4.0-4.8 nM [3H]mepyramine) or H4R (competition with 1.9-2.4 nM [3H]histamine. H2R binding was […]\nKAT478). Pooled data of three independent experiments are shown as mean ± SEM.\nFigure S16. Radioligand binding experiments with 3f on mH3R-expressing cell homogenates in competition with [3H]NAMH (1.4-1.7 nM). Pooled data of three independent experiments […]\nExperimental procedures - Pharmacology […]\nwere purchased from Promega.\nHEK293T cells stably expressing\n48 hours post transfection,\n[3H]3f binding experiments […]\nby sonication (Sonifier Branson).\nRT) containing 0.8% ethanol.\nThe incubation was terminated by\nH2R selectivity was assessed\nCells were incubated with ligands"}, "Nluc-H2R": {"target": "Nluc-H2R (Homo sapiens, UniProt P25021)", "sequence (P25021 whole entry)": "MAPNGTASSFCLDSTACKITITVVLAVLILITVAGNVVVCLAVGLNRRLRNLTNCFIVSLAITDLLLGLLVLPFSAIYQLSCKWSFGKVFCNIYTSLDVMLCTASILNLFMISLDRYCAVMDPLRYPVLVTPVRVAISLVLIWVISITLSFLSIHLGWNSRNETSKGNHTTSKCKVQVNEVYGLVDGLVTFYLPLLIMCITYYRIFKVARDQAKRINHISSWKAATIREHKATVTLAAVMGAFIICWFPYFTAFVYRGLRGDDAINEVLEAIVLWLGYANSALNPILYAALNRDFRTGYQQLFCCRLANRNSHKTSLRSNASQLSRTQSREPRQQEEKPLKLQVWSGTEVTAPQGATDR", "format": "binding", "conditions": "trans isomer; at concentrations lower than 1 μM; competition with 50 nM UR-KAT478"}, "H4R": {"target": "T2, H4R (Homo sapiens, UniProt Q9H3N8)", "T2 construct": "HA; expressed in transfected cells; host or cells: HEK293T, transient transfection (pcDEF3), cell homogenates", "T2 sequence (Q9H3N8 whole entry)": "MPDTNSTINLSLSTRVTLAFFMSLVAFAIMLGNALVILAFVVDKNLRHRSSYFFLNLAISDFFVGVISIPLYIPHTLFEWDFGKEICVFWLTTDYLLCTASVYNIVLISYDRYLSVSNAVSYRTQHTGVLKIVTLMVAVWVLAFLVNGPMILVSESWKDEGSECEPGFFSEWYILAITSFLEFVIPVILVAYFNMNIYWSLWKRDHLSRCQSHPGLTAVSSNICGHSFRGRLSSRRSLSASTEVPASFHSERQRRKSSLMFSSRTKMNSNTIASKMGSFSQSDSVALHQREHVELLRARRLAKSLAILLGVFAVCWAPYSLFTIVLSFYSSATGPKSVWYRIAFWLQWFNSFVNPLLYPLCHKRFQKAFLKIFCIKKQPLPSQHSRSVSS", "test": "Histamine receptor selectivity binding, [3H]histamine competition on cell homogenates expressing H4R", "conditions": "trans isomer; at concentrations lower than 1 μM; competition with [3H]histamine"}, "H3R [3]": {"target": "T3, H3R (Homo sapiens, UniProt Q9Y5N1)", "T3 sequence (Q9Y5N1 whole entry)": "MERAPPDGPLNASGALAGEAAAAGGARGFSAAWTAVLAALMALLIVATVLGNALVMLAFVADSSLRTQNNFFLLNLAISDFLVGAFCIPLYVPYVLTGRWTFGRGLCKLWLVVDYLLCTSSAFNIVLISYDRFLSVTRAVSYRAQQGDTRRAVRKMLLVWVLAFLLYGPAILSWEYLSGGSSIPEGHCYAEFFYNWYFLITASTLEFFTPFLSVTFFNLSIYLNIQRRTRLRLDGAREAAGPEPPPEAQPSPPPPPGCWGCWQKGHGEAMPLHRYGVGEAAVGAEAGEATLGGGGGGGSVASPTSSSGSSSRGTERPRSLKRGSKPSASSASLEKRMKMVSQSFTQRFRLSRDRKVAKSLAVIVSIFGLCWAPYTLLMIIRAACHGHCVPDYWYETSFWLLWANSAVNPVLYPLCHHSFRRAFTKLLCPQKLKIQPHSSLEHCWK", "test": "Functional H3R NanoBiT-PKA (cAMP sensor) assay in transiently transfected HEK293T cells", "format": "cell-based"}, "hH3R": {"target": "hH3R (Homo sapiens, UniProt Q9Y5N1)", "sequence (Q9Y5N1 whole entry)": "as above", "test": "Competition binding of non-labeled ligands with trans-[3H]3f on hH3R-expressing cell homogenates", "conditions": "read-out: pKi in competition with trans-[3H]3f (converted)"}, "[4]": {"test": "Nephelometry (qualitative solubility comparison)", "format": "physicochemical", "conditions": "trans state for VUF14862, either state for 3f"}, "H3R [5]": {"target": "T3, H3R", "test": "[3H]NAMH competition radioligand binding on cell homogenates overexpressing H3R", "conditions": "for Ki: [3H]NAMH competition, n = 3"}},
  "note": "Several values for one entry are separate records, joined by “and”; a condition that tells them apart may be missing. Equal entries are not always repeated. Where two headings read alike, the source gives them in different places.",
  "data": [
    {"molecule": "Cc1nn(C2CCN(C)CC2)c(C)c1/N=N/c1ccc(O[C@H]2C[C@H](N3CCCCC3)C2)cc1", "note": "[Compound 3f]", "values": [
      {"measurement": "λmax cis", "setting": "[1]", "result": 439, "unit": "nm"},
      {"measurement": "λmax trans", "setting": "[1]", "result": 348, "unit": "nm"},
      {"measurement": "Half-life (thermal relaxation of PSS cis state)", "setting": "[2]", "result": 13, "unit": "days"},
      {"measurement": "Ki", "setting": "mouse H3R; trans isomer, [3H]NAMH (1.4-1.7 nM), read-out: pKi mouse H3R (converted)", "result": 1.58, "unit": "nM"},
      {"measurement": "fold shift in affinity upon photoisomerization to PSS cis (mouse H3R)", "setting": "mouse H3R; trans versus PSS cis", "result": 42, "unit": "fold"},
      {"measurement": "binding to H2R", "setting": "Nluc-H2R", "result": "does not bind"},
      {"measurement": "binding to H4R", "setting": "H4R", "result": "does not bind"},
      {"measurement": "block of the H3R agonist response", "setting": "H3R [3]; 100 nM trans-3f preincubated, 10 nM immethridine, dark", "result": "approximately 80%"},
      {"measurement": "reversal of the response, % of the maximal agonist response", "setting": "H3R [3]; 100 nM trans-3f, 10 nM immethridine, after 365 nm LED light 10 min, 2 mW", "result": "approximately 80%"},
      {"measurement": "IC50", "setting": "H3R [3]; 365 nm 10 min (second cycle), 10 nM immethridine, read-out: pIC50, dynamic trans-3f switching step 4 (converted)", "result": 398, "unit": "nM"},
      {"measurement": "IC50", "setting": "H3R [3]; 365 nm 10 min, 10 nM immethridine, read-out: pIC50, dynamic trans-3f switching step 2 (converted)", "result": 794, "unit": "nM"},
      {"measurement": "IC50", "setting": "H3R [3]; 500 nm 10 min (second cycle), 10 nM immethridine, read-out: pIC50, dynamic trans-3f switching step 5 (converted)", "result": 50.1, "unit": "nM"},
      {"measurement": "IC50", "setting": "H3R [3]; 500 nm 10 min, 10 nM immethridine, read-out: pIC50, dynamic trans-3f switching step 3 (converted)", "result": 50.1, "unit": "nM"},
      {"measurement": "IC50", "setting": "H3R [3]; PSS cis (pre-illuminated trans-3f), competition with 10 nM immethridine, 15 min incubation, read-out: pIC50 3f-PSScis (converted)", "result": 398, "unit": "nM"},
      {"measurement": "IC50", "setting": "H3R [3]; no irradiation (dark), 10 nM immethridine, read-out: pIC50, dynamic trans-3f switching step 1 (converted)", "result": 20, "unit": "nM"},
      {"measurement": "IC50", "setting": "H3R [3]; trans isomer, competition with 10 nM immethridine, 15 min incubation, read-out: pIC50 trans-3f (converted)", "result": 31.6, "unit": "nM"},
      {"measurement": "Fold IC50 shift", "setting": "H3R [3]; trans-3f versus 3f-PSS cis", "result": 12.6, "unit": "fold"},
      {"measurement": "Ki", "setting": "hH3R; unlabeled PSS cis state", "result": 20, "unit": "nM"},
      {"measurement": "Ki", "setting": "hH3R; unlabeled trans isomer", "result": 1, "unit": "nM"},
      {"measurement": "concentrations with tendency to aggregate/precipitate", "setting": "[4]", "result": "not observed"},
      {"measurement": "Fold Ki shift", "setting": "H3R [5]; (high-affinity state)/(low-affinity state), ↓ lower affinity of PSS cis state than trans", "result": "50 fold and 50.1 ↓ fold"},
      {"measurement": "Ki", "setting": "H3R [5]; pKi PSScis ± SEM, PSS cis state", "result": 25.1, "unit": "nM"},
      {"measurement": "Ki", "setting": "H3R [5]; pKi trans ± SEM, trans isomer", "result": 0.501, "unit": "nM"}
    ]}
  ]
}
